Measurements: patent US9707239B2, “Compounds that modulate oxidative stress” (vTv Therapeutics LLC, priority 2011, dated 2017)
“Also recorded” adds a separate entry of the source. One block for each compound: values may come before it.

Experiments:
[1] = system: GADD45A; experiment: mRNA expression (Quantigene Plex) in NHLF cells: GADD45A; format: cell-based, human; conditions: mRNA normalized to GAPDH, above DMSO treated cells
Protocol: (§1) Secondary growth of NHLF cells were used for all assays. Cell were thawed and then placed into culture in T225 flasks. The cells were grown to 80% confluency and harvested by washing once with HEPES buffered saline solution and then trypsinizing. Equal numbers (7×10^3 cells per well) of NHLF cells were plated in 96 well tissue culture plates (Corning). Cells were incubated overnight in FGM-2 medium prior to exposure to compound. Cells were treated with either DMSO or a compound as described below for 6 h. Preparation of cell lysates was carried out according to instructions using the Quantigene Reagent system 2.0 protocol (Panomics). mRNA induction was detected from cell lysate using the Quantigene Plex 2.0 Assay Kit (Panomics) on the Luminex platform (BIO-RAD). Expression of GAPDH mRNA was used as the internal control for the Quantigen Plex 2.0 Assay. The data in Tables 5 and 6 represents the fold change of target mRNA expression, normalized to control values, above DMSO treated cells.

[2] = system: HSPA6; experiment: mRNA expression (Quantigene Plex) in NHLF cells: HSPA6; format: cell-based, human; conditions: mRNA normalized to GAPDH, above DMSO treated cells
Protocol: as §1

[3] = system: NHLF cells; experiment: ROS measurements (H2DCF-DA imaging); format: cell-based, human; conditions: 1 hr, cell-by-cell imaging, FIG. 3A/3B
Protocol: Secondary growth of NHLF cells were used for all assays. Cells were cultured as above. Cells were plated into 384-well BD-Optilux Plates at 2,000 cells/well and cultured overnight at 37° C. and 5% CO2. The following day, cell were washed and 2,7-dihydrodichlorofluorescin diacetate (H2DCF-DA), 10 μM ferric ammonium citrate (FAC), and Hoechst stain were added to cells for 30 min. The cells were washed once with PBS to remove any H2DCF-DA not taken up by cells. Test compounds were prepared in FBM-2 media at the desired concentrations. The plates and stain-treated cells were incubated with test compounds for 1 hr at 37° C. and 5% CO2. Following the incubation period, ROS generation was determined by imaging the cells on a GE INcell 1000 imager (Hoechst Ex. 360 Em. 535; H2DCF-DA 488 Ex. 480 Em. 535). ROS levels were determined and quantified using GE IN Cell Analyzer Software.
In addition to gene profiling, the requirement for ROS generation or chemical reactivity was tested. ROS generation was measured using an automated imaging technique. Compound 13 as well as two other compounds that were found in the screening set were tested in this experiment. Untreated NHLF cells, NHLF cells treated with the HMOX1 inducer CoPP (a negative control), and NHLF cells treated with curcumin or celestrol (positive controls) were included as controls. […] Further experiments were also conducted on chemical derivatives of Compound 13. In those experiments, all compounds tested were found not to induce an elevation of ROS levels in the cell (FIG. 3B). Thus, Compound 13 and related compounds represent a class of agents that elevate HMOX1 production without elevating ROS production.

[4] = system: NQO1; experiment: mRNA expression (Quantigene Plex) in NHLF cells: NQO1; format: cell-based, human; conditions: mRNA normalized to GAPDH, above DMSO treated cells
Protocol: as §1

[5] = system: ICAM; experiment: mRNA expression (Quantigene Plex) in NHLF cells: ICAM; format: cell-based, human; conditions: mRNA normalized to GAPDH, above DMSO treated cells
Protocol: as §1

[6] = system: TXNRD1; experiment: mRNA expression (Quantigene Plex) in NHLF cells: TXNRD1; format: cell-based, human; conditions: mRNA normalized to GAPDH, above DMSO treated cells
Protocol: as §1

[7] = system: NHLF cells; experiment: Cytoprotection of cisplatin (CDDP)-treated NHLF cells (propidium iodide staining); format: cell-based; conditions: NHLF cells, compound 24 hours prior to cisplatin exposure, FIG. 8
Protocol: A key outcome of Bach1 derepression and Nrf2 activation are the induction of cytoprotective genes. A method to test such cytoprotection is to assess the ability of a compound to protect normal human cells such as lung fibroblasts from toxicity due to cisplatin exposure. A model of cellular cytoprotection was established whereby normal human lung fibroblasts were treated with Bach1 modulators and then subsequently exposed to cisplatin. NHLF cells are very sensitive to cisplatin exposure; following a dose of 200 uM cisplatin, >90% of NHLF cells are propidium iodide positive, a measure of cell death.

[8] = system: Keap1; experiment: HMOX1 induction after Keap1 silencing (shRNA); format: cell-based, human; conditions: NHLF cells, FIG. 6
Protocol: Normal human lung fibroblasts were plated in a 12-well tissue culture dish at 16,000 cells/well and allowed to attach overnight. Regular medium was then replaced with 200 μl of fresh growth medium containing 8 μg/ml hexadimethrine bromide (polybrene). Lentiviral transduction particles were then added in the following amounts: Control shRNA (1.1×10^7 TU/ml, Sigma, cat# SHC002V), 15 μl for an MOI of 10; KEAP-1 shRNA (6.3×10^6 TU/ml, Sigma, cat# SHCLNV-TRCN0000046092), 63 μl for an MOI of 20. After 4 hours in the cell culture incubator, another 200 μl of growth medium was added on top of the original volume. Cells were replenished the next day with fresh complete growth medium and were allowed to recover for 24 hours, after which selection medium was applied (complete medium with 1 μg/ml puromycin).
Another method of testing the role of the Nrf2 regulatory pathway on compound activity is to determine the effect of silencing Keap1 on HMOX1 gene expression. It is known that deleting Keap1 will result in the induction of Nrf2 dependent genes but not, to any significant degree, HMOX1. The proposed explanation for this observation is that HMOX1 requires the concomitant derepression of Bach1 activity and that this event is more dependent on active processes (e.g., heme binding, changes in redox potential of the cell, phosphorylation of Bach1, etc.). We therefore tested the ability of Compound 13 and tool compounds to induce HMOX1 in the presence of silencing of Keap1 in normal human lung fibroblasts.
Normal human lung fibroblasts were tested with DMSO, CoPP, Compound 13, and two derivatives including Compound 4 and Compound 8. An electrophile, Compound 1, was also included in the test set. […] On the other hand, induction of HMOX1 by the electrophile Compound 1 was inhibited.

[9] = system: ATF4; experiment: mRNA expression (Quantigene Plex) in NHLF cells: ATF4; format: cell-based, human; conditions: Table 5, 6 h, mRNA normalized to GAPDH, above DMSO treated cells
Protocol: as §1

[10] = system: human Bach1; experiment: MARE controlled luciferase reporter gene assay in HepG2 cells with or without Bach1 expression; format: cell-based; conditions: transient transfection, with or without Bach1 expressing plasmid, FIG. 7
Protocol: The ability of Compound 13 to act in a manner similar to CoPP provides evidence for the hypothesis that Bach1 activity is being modulated by the compounds. […] To that end, expression vectors were prepared which contained the HMOX1 mARE promoter element recognized by both Bach1 and Nrf2. This element was placed in control of the reporter gene luciferase. Under conditions of transient transfection of HepG2 cells, the reporter has a low level of basal activity due to the relative ratio of Bach1 and Nrf2 found in the cell. Co-transfection with a Bach1 expressing plasmid leads to repression of luciferase activity. Therefore, one can test whether the compounds can increase the level of luciferase in the cells, thus overcoming Bach1 repression. […] Thus, the tested compound is able to overcome suppression by additional Bach1.

[11] = system: HMOX1; experiment: mRNA expression (Quantigene Plex) in NHLF cells: HMOX1; format: cell-based, human; conditions: mRNA normalized to GAPDH, above DMSO treated cells
Protocol: as §1

[12] = system: rat HMOX1 mRNA; experiment: HMOX1 mRNA induction in rat blood after oral gavage; format: in vivo; conditions: rats, oral gavage 5 or 25 mg/kg, over 5 hours, FIG. 11B
Protocol: (§2) Next, selected Bach1 modulators were tested for in vivo function. […] Rats were dosed with 5 mg/kg of compound by oral gavage. Compound levels in blood were determined by LC-MS (left panel). […] In a second experiment, Compound 8 activity was tested by determining the amount of HMOX1 mRNA induced in rat blood. Animals were dosed by oral gavage and blood drawn at the indicated times.

[13] = Compound levels in rat blood after oral gavage (LC-MS); format: in vivo; conditions: rats
Protocol: as §2

Structure (SMILES): C=Cc1c(C)c2cc3[nH]c(cc4nc(cc5nc(cc1[nH]2)C(C)=C5CCC(=O)[O-])C(CCC(=O)[O-])=C4C)c(C)c3C=C.[Co+2] [CoPP, Cobalt protoporphyrin IX, reference compound]
GADD45A (fold induction) ([1]; Table 5, 6 h): 1.02 fold induction
GADD45A (fold induction) ([1]; Table 6, 6 h): 1.18 fold induction
HSPA6 (fold induction) ([2]; Table 5, 6 h): 0.9 fold induction
HSPA6 (fold induction) ([2]; Table 6, 6 h): 0.86 fold induction
ROS production (in words) [3]: did not
NQO1 (fold induction) ([4]; Table 5, 6 h): 3.5 fold induction
NQO1 (fold induction) ([4]; Table 6, 6 h): 4.22 fold induction
ICAM (fold induction) ([5]; Table 5, 6 h): 1.1 fold induction
ICAM1 (fold induction) ([5]; Table 6, 6 h): 0.56 fold induction
TXNRD1 (fold induction) ([6]; Table 5, 6 h): 2.7 fold induction
TXNRD1 (fold induction) ([6]; Table 6, 6 h): 2.39 fold induction
protection against cisplatin toxicity [7]: protect the cells from CDDP-mediated toxicity
HMOX1 induction in the presence of Keap1 silencing [8]: unaffected in their ability to induce HMOX1 in the presence of Keap1 silencing
ATF4 (fold induction) [9]: 0.85 fold induction
luciferase activity of HMOX1 mARE reporter [10]: able to induce luciferase activity in the presence or absence of Bach1 protein expression; also recorded: can overcome this repression
HMOX1 (fold induction) ([11]; Table 5, 6 h): 48 fold induction
HMOX1 (fold induction) ([11]; Table 6, 6 h): 49.64 fold induction

oral bioavailability ([13]; oral gavage, FIG. 11): orally bioavailable
Structure (SMILES): COCCNC(=O)c1ccc2c(c1)nc(Nc1nc3ccc(OC(F)(F)F)cc3s1)n2C [Compound 8, 1-Methyl-2-(6-trifluoromethoxy-benzothiazol-2-ylamino)-1H-benzoimidazole-5-carboxylic acid (2-methoxy-ethyl)-amide]
HMOX1 induction in the presence of Keap1 silencing [8]: unaffected in their ability to induce HMOX1 in the presence of Keap1 silencing; also recorded: behaves similarly to CoPP induction
HMOX1 mRNA induced in rat blood [12]: able to induce HMOX1 mRNA in rat blood in a time and dose-dependent manner; also recorded: dose-dependent induction of rat HMOX1 mRNA in blood samples
compound levels in blood ([13]; 5 mg/kg (legend: 5 or 25 mg/kg) oral gavage, LC-MS, FIG. 11A): micromolar levels; also recorded: present in blood sample following oral dosing
